Where a SMILES comes first, the peptide text is derived from it. [ ]: non-standard residue; d: D form. The star is where a group is joined. Nle = CCCC[C@H](N)C(=O)O; Cbz = O=C(OCc1ccccc1)*
Legend:
Assay type in all cases: cell-based
[1] = system: vif-mediated degradation of the luciferase/apobec3G fusion protein in HeLa cells; assay: co-transfection of luciferase/apobec3G and vif constructs at varied ratios, luciferase activity (FIG. 4); settings: for luciferase activity: 10 μM or 20 μM inhibitor, luciferase/apobec3G:vif 50:1 (tested 2:1, 25:1, 50:1, 100:1)
Method: Cells were co-transfected with the luciferase/apobec3G and vif constructs at relative concentrations of 2:1, 25:1, 50:1 and 100:1 (luciferase/apobec3G:vif) in the presence or absence of 10 μM or 20 μM MG132 or ALLN, known inhibitors of proteosome-mediated protein degradation.

vif activity = assay: vif expressed from different vectors with luciferase/apobec3G in a cell (FIGS. 5A-5E); settings: vif from pCMV, pcDNA6, pcDNA6 CTE, pEF6, pEF6 CTE constructs
[2] = system: vif-mediated degradation of the luciferase/apobec3G fusion protein; assay: transient luciferase/apobec3G fusion reporter with co-introduced vif construct (chemiluminescence, western blot); settings: Phoenix and HeLa cells; band in final lane of each western blot
Description: A construct encoding a luciferase/apobec3G fusion protein was introduced into Phoenix and HeLa cells and transient expression of the luciferase/apobec3G fusion protein was monitored by detecting chemiluminescence. Results were normalized to the number of cells assayed. […] The gels shown at the top of both FIGS. 3A and 3B show results obtained from western blots of cell extracts using antibodies. Tesults obtained using anti-apobec3G and anti-lactate dehydrogenase antibodies are indicated as “3G” and “LDH”, respectively.
This phenomenon is inhibited by adding MG132, a known inhibitor of proteosome-mediated protein degradation (see the band observed in the final lane of each of the western blots). Cells containing both vif and a luciferase/apobec3G reporter can therefore be used to test agents for vif-inhibitory activity.

Row | SMILES | luciferase activity [1] | activity of an apobec3G-luciferase fusion ([1]; in the presence of apobec3G/vif in HeLa cells (FIG. 4 legend)) | modulation of vif activity (vif activity) | vif-caused decrease in luciferase activity / degradation of the luciferase/apobec3G fusion protein [2]
1 | CCCC[C@@H](C=O)NC(=O)[C@H](CC(C)C)NC(=O)[C@H](CC(C)C)NC(C)=O [ALLN] (Ac-Leu-Leu-[Nle]-aldehyde) | maximally increased luciferase activity |  |  | 
2 | CC(C)C[C@@H](C=O)NC(=O)[C@H](CC(C)C)NC(=O)[C@H](CC(C)C)NC(=O)OCc1ccccc1 [MG132] (Cbz-Leu-Leu-Leu-aldehyde) | maximally increased luciferase activity | increased activity | could be modulated | inhibited
